The values below come from patent US7041785B1, “B1-bradykinin receptor antagonists and use thereof” (Université de Sherbrooke, priority 1996, dated 2006).

Molecules are shown by their SMILES. Where two headings read alike, the source gives them in different places. Non-standard residues stand in square brackets, D forms with d. Residues, ends and D or L forms follow the SMILES beside them. Oic = O=C(O)[C@@H]1C[C@@H]2CCCC[C@@H]2N1; 2Nal = N[C@@H](Cc1ccc2ccccc2c1)C(=O)O; d2Nal = N[C@H](Cc1ccc2ccccc2c1)C(=O)O; Hyp = O=C(O)[C@@H]1C[C@@H](O)CN1; Tic = O=C(O)[C@@H]1Cc2ccccc2CN1; dTic = O=C(O)[C@H]1Cc2ccccc2CN1; 2Thi = N[C@@H](Cc1cccs1)C(=O)O; Sar = CNCC(=O)O

The test system of series [1] is T1, angiotensin-converting enzyme (ACE).
T1 construct: purified angiotensin-converting enzyme (ACE) from rabbit lungs; purchased Sigma, St-Louis, Mo; host or cells: purified from rabbit lungs
Put plainly: Metabolic degradation by purified angiotensin-converting enzyme, HPLC analysis. As to conditions: rabbit, isolated enzyme ace, pH 7.5. The format is in vitro ADME, rabbit. The method, then: (§1) The metabolic stability of various kinin-related peptides was evaluated by incubating the peptide in the presence of purified angiotensin-converting enzyme (ACE) from rabbit lungs (purchased from Sigma, St-Louis, Mo.) dissolved in phosphate buffered saline (PBS) (50 mmol/L, pH 7.5 containing 300 mmoL/L NaCl); the final concentration of enzyme was 45 μg/mL. The experimental protocol for the measurement of ACE activity has been described elsewhere^15,16. Briefly, 200 μmol/L of peptides (40 μL) were placed in a PBS buffer and incubated for 5 min at 37EC before adding 8.5 μL of ACE (total volume of the reaction medium; 190 μL). Samples were withdrawn at 30 min intervals, immersed in boiling water for 5 min, then cooled on ice and centrifuged (5 min) before proceeding to analysis of peptides by high pressure liquid chromatography (HPLC). Results of ACE metabolism are expressed in percent of kinin degradation following the incubation (30 min) of kinin substrates with the enzyme.
(§2) Pure peptides and metabolic products were analysed by reverse-phas HPLC on a C18 μBondapak column (4.6 mm×25 cm) (Waters) of 10-μm particle size. The peptides and their fragments were eluted at the rate of 2.0 mL/min. with a linear gradient ranging from 5 to 65% of acetonitrile/TFA 0.05%/water over 20 min. at room temperature. The elution positions of these peptides were determined by following the absorbance at 214 nm. For each assay, 50 μL of the reaction medium (treated or not with ACE) were extracted and injected into the column. Concentrations of the peaks products, different from the peaks of the peptide substrate, were estimated using a computer software program (Baseline 810; Waters) that controlled also all the chromatography operations. Isolated metabolites and substrates were collected and identified by Electrospray mass spectrometry (positive mode).

Series [2] deals with T2, angiotensin-converting enzyme (ACE) from rabbit lungs (Oryctolagus cuniculus, UniProt P12822).
T2 sequence (P12822 34-1310): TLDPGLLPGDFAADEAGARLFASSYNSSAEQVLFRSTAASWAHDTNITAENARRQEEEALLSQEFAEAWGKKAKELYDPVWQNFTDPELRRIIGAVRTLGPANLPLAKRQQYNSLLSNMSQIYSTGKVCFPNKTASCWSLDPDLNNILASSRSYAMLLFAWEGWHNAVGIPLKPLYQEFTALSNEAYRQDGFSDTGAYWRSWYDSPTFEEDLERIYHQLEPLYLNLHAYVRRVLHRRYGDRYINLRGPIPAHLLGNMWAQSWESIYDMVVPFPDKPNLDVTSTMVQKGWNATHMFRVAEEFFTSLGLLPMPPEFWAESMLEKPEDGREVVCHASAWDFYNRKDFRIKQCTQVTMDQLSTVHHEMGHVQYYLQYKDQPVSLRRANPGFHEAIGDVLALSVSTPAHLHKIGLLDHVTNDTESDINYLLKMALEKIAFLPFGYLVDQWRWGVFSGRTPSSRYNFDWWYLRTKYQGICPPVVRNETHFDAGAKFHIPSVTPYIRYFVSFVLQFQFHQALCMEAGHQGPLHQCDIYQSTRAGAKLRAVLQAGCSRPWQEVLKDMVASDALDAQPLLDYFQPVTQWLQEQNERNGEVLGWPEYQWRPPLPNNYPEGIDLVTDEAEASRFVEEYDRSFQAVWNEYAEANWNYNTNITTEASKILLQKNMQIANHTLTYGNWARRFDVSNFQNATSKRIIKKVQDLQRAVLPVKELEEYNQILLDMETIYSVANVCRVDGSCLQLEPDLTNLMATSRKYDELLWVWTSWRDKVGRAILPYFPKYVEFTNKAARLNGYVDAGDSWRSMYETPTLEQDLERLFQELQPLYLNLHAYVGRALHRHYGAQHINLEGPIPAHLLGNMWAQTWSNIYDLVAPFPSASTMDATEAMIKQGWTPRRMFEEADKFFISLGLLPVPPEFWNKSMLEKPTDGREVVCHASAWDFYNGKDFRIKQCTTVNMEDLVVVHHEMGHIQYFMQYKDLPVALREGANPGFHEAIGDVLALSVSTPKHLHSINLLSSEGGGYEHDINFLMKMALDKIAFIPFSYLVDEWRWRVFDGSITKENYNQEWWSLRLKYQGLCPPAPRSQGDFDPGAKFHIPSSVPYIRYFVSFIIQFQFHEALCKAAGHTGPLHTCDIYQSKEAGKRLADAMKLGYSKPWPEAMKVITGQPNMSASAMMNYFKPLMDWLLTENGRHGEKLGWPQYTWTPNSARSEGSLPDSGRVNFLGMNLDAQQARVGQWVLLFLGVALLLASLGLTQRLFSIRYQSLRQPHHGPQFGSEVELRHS
The series is described as above. The series is classed as in vitro ADME. Details: purified angiotensin-converting enzyme (ACE) from rabbit lungs; purchased Sigma, St-Louis, Mo; host or cells: purified from rabbit lungs. The method, then:
as §1, §2

Where [3] appears, read: 30 min incubation of peptide (200 μmol/L) with ACE, 37 C, read-out: ACE (% degradation).

For the molecule `CC(C)C[C@H](NC(=O)[C@H]1Cc2ccccc2CN1C(=O)[C@H](CO)NC(=O)[C@H](Cc1ccccc1)NC(=O)CNC(=O)[C@@H]1CCCN1C(=O)[C@@H]1CCCN1C(=O)[C@@H](N)CCCNC(=N)N)C(=O)O` [Compound 8, (D-Tic^7, Leu^8)desArg^9BK] (H-RPPGFS[dTic]L-OH; N-terminus and C-terminus assumed), the metabolised at 0.5 h in series [1] stood at 0%. For the same molecule, the “Less susceptible to ACE proteolytic degradation, relative to Lys(Leu8)desArgBK” value (shortened to “Less susceptible … relative to Lys(Leu8)desArgBK”) in series [2] is on record as 2-5 times. For `CNCC(=O)N[C@@H](CCCNC(=N)N)C(=O)N1CCC[C@H]1C(=O)N1CCC[C@H]1C(=O)NCC(=O)N[C@@H](Cc1ccccc1)C(=O)N[C@@H](CO)C(=O)N1Cc2ccccc2C[C@@H]1C(=O)N[C@@H](CC(C)C)C(=O)O` [Compound 9, Sar(D-Tic^7, Leu^8)desArg^9BK] (H-[Sar]RPPGFS[dTic]L-OH; N-terminus and C-terminus assumed), the metabolised at 0.5 h in series [1] (setting [3]) stood at 0%. Besides, in series [2], the “Less susceptible … relative to Lys(Leu8)desArgBK” value is listed as 2-5 times.

In series [1], `CC(C)C[C@H](NC(=O)[C@H]1Cc2ccccc2CN1C(=O)[C@H](CO)NC(=O)[C@H](Cc1ccccc1)NC(=O)CNC(=O)[C@@H]1CCCN1C(=O)[C@@H]1CCCN1C(=O)[C@H](CCCNC(=N)N)NC(=O)[C@H](N)CCCNC(=N)N)C(=O)O` [Compound 12, D-Arg(D-Tic^7, Leu^8)desArg^9BK] (H-[dR]RPPGFS[dTic]L-OH; N-terminus and C-terminus assumed) showed a metabolised at 0.5 h of 0%. Also, the “Less susceptible … relative to Lys(Leu8)desArgBK” value in series [2] is 2-5 times.

`CC[C@H](C)[C@H](NC(=O)[C@H]1Cc2ccccc2CN1C(=O)[C@H](CO)NC(=O)[C@H](Cc1ccccc1)NC(=O)CNC(=O)[C@@H]1CCCN1C(=O)[C@@H]1CCCN1C(=O)[C@H](CCCNC(=N)N)NC(=O)[C@H](N)CCCNC(=N)N)C(=O)O` [Compound 13, D-Arg(D-Tic^7, Ile^8)desArg^9BK] (H-[dR]RPPGFS[dTic]I-OH; N-terminus and C-terminus assumed) registered a metabolised at 0.5 h in series [1] of 9 ± 1%. In series [2], the “Less susceptible … relative to Lys(Leu8)desArgBK” value is given as 2-5 times. In series [1], `CC[C@H](C)[C@H](NC(=O)[C@@H]1Cc2ccccc2CN1C(=O)[C@H](CO)NC(=O)[C@H](Cc1ccccc1)NC(=O)CNC(=O)[C@@H]1CCCN1C(=O)[C@@H]1CCCN1C(=O)[C@H](CCCNC(=N)N)NC(=O)[C@H](N)CCCNC(=N)N)C(=O)O` [Compound 14, D-Arg(L-Tic^7, Ile^8)desArg^9BK] (H-[dR]RPPGFS[Tic]I-OH; N-terminus and C-terminus assumed) displayed a metabolised at 0.5 h of 77 ± 3%. `CC(C)C[C@H](NC(=O)[C@H]1Cc2ccccc2CN1C(=O)[C@H](CO)NC(=O)[C@H](Cc1ccccc1)NC(=O)CNC(=O)[C@@H]1C[C@@H](O)CN1C(=O)[C@@H]1CCCN1C(=O)[C@H](CCCNC(=N)N)NC(=O)[C@H](N)CCCNC(=N)N)C(=O)O` [Compound 17, D-Arg(Hyp^3, D-Tic^7, Leu^8)desArg^9BK] (H-[dR]RP[Hyp]GFS[dTic]L-OH; N-terminus and C-terminus assumed) gave a metabolised at 0.5 h in series [1] of 0%. The “Less susceptible … relative to Lys(Leu8)desArgBK” value in series [2] is recorded as 2-5 times. In series [1], `CC(=O)N[C@@H](CCCCN)C(=O)N[C@@H](CCCNC(=N)N)C(=O)N1CCC[C@H]1C(=O)N1CCC[C@H]1C(=O)NCC(=O)N[C@@H](Cc1ccccc1)C(=O)N[C@@H](CO)C(=O)N[C@H](Cc1ccc2ccccc2c1)C(=O)N[C@@H](CC(C)C)C(=O)O` [Compound 18, AcLys(D-βNal^7, Leu^8)desArg^9BK] (Ac-KRPPGFS[d2Nal]L-OH; C-terminus assumed) registered a metabolised at 0.5 h, 42.1 μmol/L of 22 ± 1%. Also, the “Less susceptible … relative to Lys(Leu8)desArgBK” value in series [2] was 2-5 times. For `CC[C@H](C)[C@H](NC(=O)[C@@H](Cc1ccc2ccccc2c1)NC(=O)[C@H](CO)NC(=O)[C@H](Cc1ccccc1)NC(=O)CNC(=O)[C@@H]1CCCN1C(=O)[C@@H]1CCCN1C(=O)[C@H](CCCN=C(N)N)NC(=O)[C@H](CCCCN)NC(C)=O)C(=O)O` [Compound 19, AcLys(D-βNal^7, Ile^8)desArg^9BK] (Ac-KRPPGFS[d2Nal]I-OH) the same measures were 34 ± 1% and 2-5 times. For the molecule `CC[C@H](C)[C@H](NC(=O)[C@H](Cc1ccc2ccccc2c1)NC(=O)[C@H](CO)NC(=O)[C@H](Cc1ccccc1)NC(=O)CNC(=O)[C@@H]1CCCN1C(=O)[C@@H]1CCCN1C(=O)[C@H](CCCNC(=N)N)NC(=O)[C@H](CCCCN)NC(C)=O)C(=O)O` [Compound 20, AcLys(L-βNal^7, Ile^8)desArg^9BK] (Ac-KRPPGFS[2Nal]I-OH; C-terminus assumed), the metabolised at 0.5 h, 42.1 μmol/L in series [1] was 99 ± 1%. `CC[C@H](C)[C@H](NC(=O)[C@@H](Cc1ccc2ccccc2c1)NC(=O)[C@H](CO)NC(=O)[C@H](Cc1ccccc1)NC(=O)CNC(=O)[C@@H]1CCCN1C(=O)[C@@H]1CCCN1C(=O)[C@H](CCCNC(=N)N)NC(=O)[C@H](N)CCCNC(=N)N)C(=O)O` [Compound 23, D-Arg(D-βNal^7, Ile^8)desArg^9BK] (H-[dR]RPPGFS[d2Nal]I-OH; N-terminus and C-terminus assumed): the metabolised at 0.5 h, 42.1 μmol/L in series [1] stood at 8 ± 1%. In addition, the “Less susceptible … relative to Lys(Leu8)desArgBK” value in series [2] is recorded as 2-5 times.

In series [1], `CC(C)C[C@H](NC(=O)[C@@H](Cc1ccc2ccccc2c1)NC(=O)[C@H](CO)NC(=O)[C@H](Cc1ccccc1)NC(=O)CNC(=O)[C@@H]1CCCN1C(=O)[C@@H]1CCCN1C(=O)[C@H](CCCNC(=N)N)NC(=O)[C@H](N)CCCNC(=N)N)C(=O)O` [Compound 24, D-Arg(D-βNal^7, Leu^8)desArg^9BK] (H-[dR]RPPGFS[d2Nal]L-OH; N-terminus and C-terminus assumed) gave a metabolised at 0.5 h, 42.1 μmol/L of 5 ± 1%. Further, in series [2], the “Less susceptible … relative to Lys(Leu8)desArgBK” value is 2-5 times. `N=C(N)NCCC[C@@H](N)C(=O)N[C@@H](CCCNC(=N)N)C(=O)N1CCC[C@H]1C(=O)N1C[C@H](O)C[C@H]1C(=O)NCC(=O)N[C@@H](Cc1cccs1)C(=O)N[C@@H](CO)C(=O)N1Cc2ccccc2C[C@@H]1C(=O)N1[C@H](C(=O)O)C[C@@H]2CCCC[C@@H]21` [Compound 31, D-Arg(Hyp^3, Thi^5, D-Tic^7, Oic^8)desArg^9BK, reference compound] (H-[dR]RP[Hyp]G[2Thi]S[dTic][Oic]-OH; N-terminus and C-terminus assumed): in series [1] (setting [3]), the metabolised at 0.5 h was determined as 0%.
